Test results reported in patent publication US5298502A, “Method and composition for photodynamic treatment and detection of tumors” (priority 1991, dated 1994).

How the values were obtained:
[1] = tested on: DBA/2 Ha mice with SMT-F subcutaneous tumors; assay: Proto IX content of tissues of tumor-bearing mice fed the agent (Example 6); type: in vivo; conditions: for concentration of Proto IX in tissue, Adrenal / concentration of Proto IX in tissue, Intestine / concentration of Proto IX in tissue, Kidneys / concentration of Proto IX in tissue, Liver / concentration of Proto IX in tissue, Tumor / Proto IX Mean Cps per gram, Intestine: 2000 ppm in feed; for Proto IX Mean Cps per gram, Adrenal / Proto IX Mean Cps per gram, Kidneys / Proto IX Mean Cps per gram, Liver / Proto IX Mean Cps per gram, Tumor / Weight of Tumor as excised: 2000 ppm in feed Days 2-10, sacrificed Day 10 (6j Day 7); for Proto IX Mean Cps per gram, Intestine: samples diluted with 3 parts basic acetone to one part sample
Protocol: In this Example the enzyme-inhibiting agents were added to the feed of tumor-bearing mice; for some of the mice, used as a control, no agent was added to the feed. The mice were then sacrificed and their kidneys, intestines, adrenal glands, liver and tumor were removed and analyzed for their content of Proto IX. The following enzyme-inhibiting agents were employed: [drawing 10]
More particularly, the mice were DBA/2 Ha mice which had been injected with SMT-F subcutaneous tumors on Day 0 in the right shoulder. The mice, individually housed, received untreated Purina Rodent Chow 5001 Mash on Day 1; thereafter on Days 2 through 10 the mice received the same Mash treated with 2000 ppm of the inhibiting agent being tested (or, for the controls, the same untreated Mash). The treatment of the Mash was effected by blending it with a small amount of an acetone solution of the agent to be tested. The mice were then sacrificed on Day 10, except for the mouse treated with the agent designated as 6j; the latter was sacrificed on Day 7. The tissues were refrigerated at 4° C. overnight, then blotted dry, and the fresh weight of each tissue sample was recorded. The tissues were then homogenized in 5 mL, or lo mL in the cases of intestines and liver, of acetone-0.1 N NH4 OH (9:I, v/v). The homogenates were then centrifuged at 1500 g and the supernatants were analyzed on a SPEX FAII2 spectrofluorometer; excitation 400 nm, emission 630 nm wavelengths, the optima for Proto IX. Proto IX accumulation was determined as CPS (fluorescent counts per second emitted) per gram of tissue. The results are tabulated below (results are averages for two mice for each treatment, except for treatments with agents 6f, 6h, 6i and 6j in each of which only one mouse was treated): […]

[2] = tested on: HeLa cells; assay: Proto IX in HeLa cells and culture medium, cell growth observations (Example 8); type: cell-based, human; conditions: 100 μM agent, compared to the control; for inhibition at 100 µM: Homo sapiens, HeLa, read-out: inhibiting effect on cell growth (rough observations)
Protocol: In a manner similar to Examples 1 and 2, cultures of HeLa cells were incubated in the presence of 100 μM of various treating agents, listed below. The agent was added in dilute solution in dimethylsulfoxide (DMSO),and the controls contained 0.2% DMSO v/v. After such incubation the culture medium was poured off, removing it from the cells, the cells were loosened from the culture flasks by addition of 0.25% W/v trypsin Which remained in contact With the cells for 20 minutes at 37° C., after which a fluorometric medium was added to the flask. The fluorometric medium was the same as that described in Example 7 except that its pH was 6.5; this medium also acted as an extractant. The resulting extract was analyzed for proto IX content. The separated culture medium was also analyzed fluorometrically for Proto IX content. The pairs of percentages given, next to each treating agent, indicate the amount of Proto IX produced in the presence of that treating agent relative to the amount produced by the control in the same experiment; the first number of each pair relates to the concentration of Proto IX in the culture medium and the second number relates to the concentration in the cells. [drawing 12]

[3] = tested on: HeLa cells; assay: Tetrapyrrole accumulation in treated HeLa cells (Example 1); type: cell-based, human; conditions: 3 days in the dark
Protocol: HeLa cells (a human tumor cell line commonly employed for tumor research and obtained from the American Type Culture Collection), in logarithmic growth phase (having been cultured at 37° C. for five days in one-liter Falcon tissue culture flasks), were washed in phosphate buffered saline (PBS). A 0.25% solution of trypsin in PBS (2 mL) was added, and, after several minutes, the cells were gently removed from the flask and placed into 110 mL of a 25 mM solution of Hepes in Minimum Essential Medium (MEM) supplemented with 10% v/v inactivated calf serum, 1.1 mL of a 200 mM solution of glutamine in 0.85% saline solution, and 11,000 units of penicillin/11,000 mcg streptomycin.
Then, 5.0 mL aliquots of the resulting resuspended cell culture were each placed into a 50 mL Falcon tissue culture flask and (except for the control) mixed with the treating agent. The aliquots were then incubated in the dark at 37° C. for three days. The cells were then removed and extracted under green light in the following manner:
Cells were removed from the bottom of the flask with the addition of 0.8 mL of a 0.25% solution of trypsin in PBS. After 1 hour of incubation in the dark, cells and medium were removed from the flasks, placed into round bottom centrifuge tubes, and then subjected to two rounds of freeze-thaw conditions to disrupt the cells and allow for extraction.
Ten mL of basic acetone (90% acetone:10% of 0.1 N NH4 OH) was then added to each tube, and the tubes were centrifuged to remove protein and cell debris. Five mL of water was added to the supernatant, followed by 0.5 mL of a saturated aqueous solution of NaCl. The pH was then adjusted to 6.8 by the dropwise addition of 2 M KH2 PO4. The aqueous acetone extract was then loaded onto a C8 Baker Prep column. The columns were dried and then washed with 2 mL of water. The tetrapyrroles were eluted with 2×1.5 mL volumes of 90/10 CH3 OH/H2 O. Extracts were then quantified on a spectrofluorometer.
Agent A was supplied as a filter-sterilized 250 mM solution in water, pH 6.5. Agents B, C, D, and E were supplied as 50 mM solutions in acetone. Acetone was also added to the control to provide a concentration of 0.2% v/v therein. The amounts of the agents added to the cell cultures were such as to give the concentrations specified in the Table 1 below. The amounts of the tetrapyrrole protoporphyrin IX ("Proto IX") produced are shown in that Table.

[4] = tested on: HeLa cells; assay: Growth inhibition and Proto IX accumulation in HeLa cells (Example 2); type: cell-based, human; conditions: for Amount of Proto IX: average amount per 10^6 cells; for inhibition at 100 µM: 4 days in the dark
Protocol: HeLa cells, in logarithmic growth phase having been cultured for 6 days in six one-liter Falcon tissue culture flasks at 37° C.), were washed in phosphate buffered saline (PBS). A 0.25% solution of trypsin in PBS was added, and, after several minutes, the cells were gently removed and placed into 110 mL of a 25 mM solution of Hepes in Minimum Essential Medium (MEM), supplemented with 10% v/v inactivated calf serum, 1.1 mL of a 200 mM solution of glutamine in 0.85% saline solution, and 11,000 units of penicillin/11,000 mcg streptomycin.
Aliquots (5.0 mL each) of the resuspended cell culture were placed into 50 mL Falcon tissue culture flasks, with or without herbicide, and incubated in the dark at 37° C. for 4 days, the herbicide being added in dilute acetone solution as in Example 1. Acetone was also added to the controls to provide a concentration of acetone of 0.2% v/v therein. The amount of herbicide was such as to provide the concentrations specified in Table 2 below.
Extraction: The media from each of the flasks were placed in glass round bottom tubes, while the cells adhering to the bottom of the flasks were loosened by the addition of 0.5 mL of a 0.25% solution of trypsin in PBS, and after several minutes at 37° C., then washed from the flasks and recombined with their media. Aliquots of 100 μL were then removed from each cell suspension to determine cell density. The remaining 5.4 mL of cell suspension was then sonified for 30 minutes to disrupt the cells.
Ten mL of basic acetone (90% acetone:10% 0.1 N NH4 OH) was then added to each tube, and the tubes were centrifuged to remove protein and cell debris. Five mL of water was added to the supernatant, followed by 0.5 mL of a saturated aqueous solution of NaCl. The pH was then adjusted to 6.8 by the dropwise addition of 2 M KH2 PO4. The aqueous acetone extract was then loaded onto a C8 Baker Prep column. The columns were dried and then washed with 2 mL of water. The tetrapyrroles were eluted with 3 mL of 90/10 CH3 OH/H2 O. As in Example 1, all these extraction procedures were carried out substantially entirely under non-protoporphrin IX-exciting light (e.g. green light) or in the dark (e.g. in opaque covered containers). The fluorescence of the extracts was then determined on a SPEX spectrofluorometer. Protoporphyrin IX ("Proto IX") accumulation was quantified utilizing predetermined extinction coefficients.

[5] = Homo sapiens, HeLa, 96 h, 100 μM agent

CC(C)Oc1cc(-n2nc(C(C)(C)C)oc2=O)c(Cl)cc1Cl [Agent 6d]
concentration of Proto IX in tissue, Adrenal [1]: 4 ug of Proto IX per gram of tis | concentration of Proto IX in tissue, Intestine [1]: 51 ug of Proto IX per gram of tis | concentration of Proto IX in tissue, Kidneys [1]: 117 ug of Proto IX per gram of tis | concentration of Proto IX in tissue, Liver [1]: 14 ug of Proto IX per gram of tis | concentration of Proto IX in tissue, Tumor [1]: 18 ug of Proto IX per gram of tis | Proto IX Mean Cps per gram, Adrenal [1]: 443 Cps per gram × 10^3 | Proto IX Mean Cps per gram, Kidneys [1]: 12865 Cps per gram × 10^3 | Proto IX Mean Cps per gram, Liver [1]: 1581 Cps per gram × 10^3 | Proto IX Mean Cps per gram, Tumor [1]: 2006 Cps per gram × 10^3 | Weight of Tumor as excised [1]: 294 mg | Proto IX Mean Cps per gram, Intestine [1]: 5565 Cps per gram × 10^3

C#CCOc1cc(N2C(=O)C(C)=C(C)C2=O)c(F)cc1Cl [Compound 8ab]
effect on cell growth (rough observations) [2]: lethal

C#CCOc1cc(-n2ncc(=O)n(C)c2=O)c(F)cc1Cl [Compound 8t]
inhibition at 100 µM [2]: 50%

CC(C)Oc1cc(-n2oc(=O)n(C)c2=O)c(F)cc1Cl [Compound 8ai]
inhibition at 100 µM [2]: 50%

NCC(=O)CCC(=O)O [Agent A, 5-amino levulinic acid, reference compound]
Amount of Proto IX ([3]; 5000 μM agent): 4.2 pmol | Fluorescence Emission cps 400/630 ([3]; 5000 μM agent): 41842 cps

Cn1c(=O)cnn(-c2ccc(Cl)cc2F)c1=O [Agent E]
Amount of Proto IX ([3]; 100 μM agent): 0.9 pmol | Fluorescence Emission cps 400/630 ([3]; 100 μM agent): 8967 cps

CCOC(=O)C(C)OC(=O)c1cc(Oc2ccc(C(F)(F)F)cc2Cl)ccc1[N+](=O)[O-] (stereo not shown) [Compound 8an]
inhibition at 100 µM [2]: 50%

CC1(C)Cc2c(Br)ccc(OC(=O)N3CCCC3)c2O1 [Compound 8ae]
effect on cell growth (rough observations) [2]: lethal

CCOC(=O)C(C)Oc1ccc(Cn2c(C)nn(-c3cc(OC)c(Cl)cc3F)c2=O)cc1 (stereo not shown) [Compound 8ag]
inhibition at 100 µM [2]: 25%

CCOC(=O)C(C)Oc1ccc(Oc2cc(-n3nc(C)n(C(F)F)c3=O)c(F)cc2Cl)cc1 (stereo not shown) [Agent C]
Amount of Proto IX ([4]; 1 μM agent): 0.19 pmol | Amount of Proto IX ([4]; 10 μM agent): 0.57 pmol | Amount of Proto IX ([4]; 100 μM agent): 4.41 pmol | activity at 1 µM ([4]; Homo sapiens, HeLa, 96 h, 1 μM agent, percent of control, read-out: Relative % proto IX): 86% | activity at 10 µM ([4]; Homo sapiens, HeLa, 96 h, 10 μM agent, percent of control, read-out: Relative % proto IX): 259% | inhibition at 100 µM [4, 5]: 52% | inhibition at 1 µM ([4]; Homo sapiens, HeLa, 1 μM agent, negative values indicate that growth occurred): -26% | inhibition at 10 µM ([4]; Homo sapiens, HeLa, 10 μM agent, negative values indicate that growth occurred): -15% | Amount of Proto IX ([3]; 100 μM agent): 3.5 pmol | Fluorescence Emission cps 400/630 ([3]; 100 μM agent): 33477 cps

C#CCOc1cc(N=C2SCC(=O)N2C)c(F)cc1Cl [Compound 8ah]
effect on cell growth (rough observations) [2]: lethal

C#CCN1C(=O)COc2cc(F)c(-n3ncc(=O)n(C)c3=O)cc21 [Agent D]
Amount of Proto IX ([3]; 100 μM agent): 1.1 pmol | Fluorescence Emission cps 400/630 ([3]; 100 μM agent): 10551 cps

CC(C)Oc1cc(-n2c(=O)n3n(c2=S)CCCC3)c(F)cc1Cl [Agent 6e]
concentration of Proto IX in tissue, Adrenal [1]: 12 ug of Proto IX per gram of tis | concentration of Proto IX in tissue, Intestine [1]: 19 ug of Proto IX per gram of tis | concentration of Proto IX in tissue, Kidneys [1]: 8 ug of Proto IX per gram of tis | concentration of Proto IX in tissue, Liver [1]: 8 ug of Proto IX per gram of tis | concentration of Proto IX in tissue, Tumor [1]: 8 ug of Proto IX per gram of tis | Proto IX Mean Cps per gram, Adrenal [1]: 1331 Cps per gram × 10^3 | Proto IX Mean Cps per gram, Kidneys [1]: 915 Cps per gram × 10^3 | Proto IX Mean Cps per gram, Liver [1]: 876 Cps per gram × 10^3 | Proto IX Mean Cps per gram, Tumor [1]: 837 Cps per gram × 10^3 | Weight of Tumor as excised [1]: 165 mg | Proto IX Mean Cps per gram, Intestine [1]: 2069 Cps per gram × 10^3

COC(=O)c1cc(Oc2ccc(Cl)cc2Cl)ccc1[N+](=O)[O-] [Compound 8ap]
inhibition at 100 µM [2]: 50%

CCS(=O)(=O)Nc1cc(-n2nnn(-c3ccc([N+](=O)[O-])cc3)c2=O)c(F)cc1Cl [Compound 8af]
effect on cell growth (rough observations) [2]: lethal

COc1ccc(OC)c(CNC(=O)c2ccc(Cl)cc2)c1 [Compound 8aj]
inhibition at 100 µM [2]: 25%

O=[N+]([O-])c1ccc(Oc2ccc(Cl)cc2Cl)cc1 [Compound 8ar]
inhibition at 100 µM [2]: 25%

Cc1nc2ccccc2n1Cc1c(F)c(F)c(F)c(F)c1F [Compound 8ad]
effect on cell growth (rough observations) [2]: lethal

CC(C)Oc1cc(-n2nc(C(C)(C)C)oc2=O)c(Cl)cc1Cl [Agent F]
Amount of Proto IX ([4]; 100 μM agent): 2.71 pmol | inhibition at 100 µM [4, 5]: 106%

C#CCOc1cc(N2N=CCN(C)C2=O)c(F)cc1Cl [Compound 8u]
inhibition at 100 µM [2]: 60%

O=C(Nc1ccc(Cl)cc1)C(F)(F)Sc1ccccc1 [Compound 8ak]
inhibition at 100 µM [2]: 50%

C#CCOc1cc(N2C(=O)C3CCCCC3C2=O)c(F)cc1Cl (stereo not shown) [Compound 8ac]
inhibition at 100 µM [2]: 50%
